In patent US8883738B2, “Use of a peptide fragment of CD44v6 in the treatment of ophthalmic diseases” (Karlsruher Institut für Technologie, priority 2009, dated 2014):

Tests used:
MDA-MB231 tumors = assay: Orthotopic MDA-MB231 mammary tumor model, tumor-induced angiogenesis; assay type: in vivo, SCID mice
Protocol: Injections of tumor cells MDA-MB231 cells (1×10^6 per animal) were harvested at subconfluency, washed with PBS and resuspended in 50 μl of PBS. The cells were implanted through a skin incision with an insulin syringe very slowly into the mammary fat pad of the fourth mammary complex of anesthetized female SCID mice (strain C.B-17/Ztm-scid). The incision was closed using an interrupted Vicryl suture for the skin (5/0, Ethicon, Norderstedt, Germany). The tumors were allowed to grow for one week, then the animals were divided in groups (6 to 7 animals per group) and treated with 20 μg of anti-mouse CD44v6 (clone 9A4), control IgG (NatuTec, Frankfurt, Germany), mouse v6 peptide or control peptide three times per week i.p. Tumor growth was monitored once per week using a caliper or via fpVCT imaging (see below). The animals were sacrificed 5 weeks after tumor cell implantation, the tumors were excised, measured, divided in halves and fixed in 4% formalin or zinc fixative (0.5 g/l calcium acetate, 5 g/l zinc acetate, 5 g/l zinc chloride in 0.1 M Tris pH 7.4) for 24 h for immunohistological analysis. L3.6pl human pancreatic cancer cells were injected orthotopically. Briefly, a small left abdominal flank incision was made and the spleen was exteriorized. […] The tumor volume was calculated as length×height×width divided by 2. […]

Erk = assay: Activation of Erk (phospho-Erk Western blot) in HUVEC; assay type: cell-based, human; conditions: 100 μg/ml anti-CD44v6, 100 ng/ml peptide, 0.5 μg/ml CD44v6ECD; for VEGF-A165 induced activation of Erk: VEGF-A165 40 ng/ml
Protocol: (§1) Activation of RTKs and Erk Serum starved cells (24 h) were induced with the growth factor HGF (20 ng/ml) at 37° C. for 5 min or with VEGF-A165 or VEGF-A121 (40 ng/ml) at 37° C. for 8 min. Where indicated, the cells were treated with blocking reagents prior to induction at 37° C. for 10 min (100 μg/ml anti-CD44v6, 100 ng/ml v6 peptide or 100 ng/ml control peptide, 0.5 μg/ml CD44v6ECD). Cells were washed with icecold PBS. To detect activated Erk, cells were lysed in boiling SDS-sample buffer containing 100 mM dithiothreitol (DTT) and subjected to Western blot analysis using antibodies against phosphorylated Erk. The Erk loading control was performed on the same blot stripped (62.5 mM Tris pH 6.8, 2% SDS, 0.8% DTT) and probed with the Erk antibody. To detect activated VEGFR-2, cells were lysed in reducing sample buffer and the blots of SDS-PAGE gels were probed with an antibody against phosphorylated VEGFR-2. Alternatively, lysates (20 mM Tris pH 7.4, 1 mM EDTA, 1 mM EGTA, 1 mM DTT, 25 mM NaCl, 1.5% Triton X-100, 10 mM NaF, 1 mM PMSF, 1 mM Na-orthovanadate, 1 mM aprotinin and leupeptin) were prepared. After centrifugation, the cleared lysates (12,000 rpm for 15 min) were incubated with VEGFR-2 antibody (clone A-3, Santa Cruz, Heidelberg, Germany) or a mouse IgG control (Santa Cruz, Heidelberg, Germany) at 4° C. overnight followed by incubation with Protein A/G agarose beads (Merck, Darmstadt, Germany) for 2 h at 4° C. The beads were washed three times, boiled in sample buffer and subjected to Western blot analysis using phospho-specific VEGFR-2 antibody. To obtain the loading control, the blots were stripped and reprobed with the VEGFR-2 antibody. Blots were stained using the enhanced chemiluminescence system (ECL, Thermo Fischer Scientific Inc., Waltham, Mass.). Bands in Western blot analysis were quantified with the program Image J.

VEGFR-2 = target: T1, VEGFR-2 (Homo sapiens, UniProt P35968); assay: Activation of VEGFR-2 (phospho-VEGFR-2 Western blot) in HUVEC; assay type: cell-based; conditions: 100 μg/ml anti-CD44v6, 100 ng/ml peptide
T1 construct: endogenous in cells; host or cells: HUVEC (Provitro GmbH)
Protocol: as §1, with “After centrifugation, the cleared lysates (12,000 rpm for 15 min) were incubated with VEGFR-2 antibody (clone A-3, Santa Cruz, Heidelberg, Germany) or a mouse IgG control (Santa Cruz, Heidelberg, Germany) at 4° C. overnight followed by incubation with Protein A/G agarose beads (Merck, Darmstadt, Germany) for 2 h at 4° C. The beads were washed three times, boiled in sample buffer and subjected to Western blot analysis using phospho-specific VEGFR-2 antibody. To obtain the loading control, the blots were stripped and reprobed with the VEGFR-2 antibody. Blots were stained using the enhanced chemiluminescence system (ECL, Thermo Fischer Scientific Inc., Waltham, Mass.).” left out

T1 sequence (P35968 20-1356): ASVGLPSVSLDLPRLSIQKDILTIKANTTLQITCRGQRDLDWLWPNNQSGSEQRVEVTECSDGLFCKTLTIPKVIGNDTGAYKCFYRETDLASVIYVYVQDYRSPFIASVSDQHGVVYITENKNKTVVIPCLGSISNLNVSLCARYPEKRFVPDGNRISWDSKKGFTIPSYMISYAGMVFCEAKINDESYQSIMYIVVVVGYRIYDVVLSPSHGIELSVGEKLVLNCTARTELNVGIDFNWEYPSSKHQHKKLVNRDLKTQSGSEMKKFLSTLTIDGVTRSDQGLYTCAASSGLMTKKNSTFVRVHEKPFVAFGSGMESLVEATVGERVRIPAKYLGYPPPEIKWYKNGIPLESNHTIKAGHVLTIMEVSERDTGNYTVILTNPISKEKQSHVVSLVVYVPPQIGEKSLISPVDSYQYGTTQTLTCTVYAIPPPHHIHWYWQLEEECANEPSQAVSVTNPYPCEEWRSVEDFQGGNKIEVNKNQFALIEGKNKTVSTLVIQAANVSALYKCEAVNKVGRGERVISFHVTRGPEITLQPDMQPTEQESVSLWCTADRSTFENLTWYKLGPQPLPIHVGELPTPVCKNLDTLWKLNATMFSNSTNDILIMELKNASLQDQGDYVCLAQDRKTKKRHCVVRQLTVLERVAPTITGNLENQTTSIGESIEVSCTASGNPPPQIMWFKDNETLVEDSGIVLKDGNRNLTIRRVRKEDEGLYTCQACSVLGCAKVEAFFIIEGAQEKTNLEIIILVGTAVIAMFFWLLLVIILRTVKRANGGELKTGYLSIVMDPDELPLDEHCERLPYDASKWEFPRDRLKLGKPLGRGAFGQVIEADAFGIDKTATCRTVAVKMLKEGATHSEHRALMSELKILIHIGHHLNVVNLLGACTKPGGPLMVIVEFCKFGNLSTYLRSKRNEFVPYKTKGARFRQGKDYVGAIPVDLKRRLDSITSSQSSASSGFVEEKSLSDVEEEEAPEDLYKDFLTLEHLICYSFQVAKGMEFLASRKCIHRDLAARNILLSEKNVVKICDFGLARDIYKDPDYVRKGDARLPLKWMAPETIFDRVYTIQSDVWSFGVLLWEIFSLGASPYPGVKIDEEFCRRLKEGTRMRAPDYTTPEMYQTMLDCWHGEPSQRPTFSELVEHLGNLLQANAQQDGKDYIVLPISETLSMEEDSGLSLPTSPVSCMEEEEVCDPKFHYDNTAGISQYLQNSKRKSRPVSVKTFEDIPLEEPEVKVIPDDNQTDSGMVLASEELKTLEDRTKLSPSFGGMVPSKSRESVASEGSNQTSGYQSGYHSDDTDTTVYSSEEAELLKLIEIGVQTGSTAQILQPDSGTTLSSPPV

Row | activation of VEGFR-2 by VEGF-A121 (VEGFR-2; VEGF-A121 40 ng/ml, 0.5 μg/ml CD44v6ECD) | activation of VEGFR-2 by VEGF-A165 (VEGFR-2; VEGF-A165 40 ng/ml) | Substance | tumor growth (MDA-MB231 tumors; 20 μg i.p. three times per week for four weeks) | average vessel number (microvessel density) (MDA-MB231 tumors; CD31 stained tumor sections, 20 μg i.p. three times per week, five animals each) [per mm^2] | HGF induced activation of Erk (Erk; HGF 20 ng/ml) | VEGF-A121 induced activation of Erk (Erk; VEGF-A121 40 ng/ml) | VEGF-A165 induced activation of Erk (Erk)
1 | – | – | QETWFQNGWQGKNP (listed as Mus musculus) [v6 murine peptide] | not influenced | 183 | – | – | –
2 | completely blocked | – | CD44v6ECD: soluble CD44v6 ectodomain produced in Pichia pastoris | – | – | completely abrogated | completely blocked | completely abrogated
3 | – | abrogated | KEQWFGNRWHEGYR (listed as Homo sapiens) [v6 human peptide (14mer)] | – | – | – | – | abrogated
